Key:
[1] = test system: MOLT-4; test: NCI 60 cell line growth inhibition; format: cell-based; conditions: Homo sapiens; MOLT-4 line
[2] = test system: T98G cells; test: Potentiation of MeLex cytotoxicity, short term (72 h) MTS assay; format: cell-based, human
Description: Cytotoxic Potentiation of Various DNA Damaging Agents. T98G cells maintained in growth medium were resuspended in fresh growth medium and seeded into 96-well plates at 2000 cells/well (short term cytotoxicity) or 100 cells/well (long term cytotoxicity) as described in the previous section. After 24 h, the cells were treated with serial dilutions of various DNA damaging drugs in absence or presence of APE-1 inhibitors. At the end of the treatment period, cell survival was assayed using CellTiter 96 AQueous or CyQUANT kits for the short- and long-term studies respectively.
Toxicity. It was assumed that inhibition of APE-1 activity would be lead to toxicity since genetic deletion of the protein is lethal to cells. […] The toxicities were also determined in combination with the DNA minor groove methylating agent, MeLex. MeLex efficiently and selectively generates N3-methyladenine, which is converted into an abasic site by a BER glycosylase and/or hydrolytic depurination. The T98G cell line is relatively resistant to DNA damaging anticancer agents due to expression of multiple drug resistance proteins and O^6-alkylguanine-DNA alkyltransferase. […] A goal of the development of APE-1 inhibitors is to determine if they can be used to enhance the activity of DNA alkylating agents.

[3] = target: APE-1 activity in T98G cell nuclear lysates (Homo sapiens (Human), UniProt P27695); test: Molecular beacon assay in T98G cell nuclear extracts; format: biochemical
APE-1 activity in T98G cell nuclear lysates, sequence (P27695 whole entry, stated change not applied): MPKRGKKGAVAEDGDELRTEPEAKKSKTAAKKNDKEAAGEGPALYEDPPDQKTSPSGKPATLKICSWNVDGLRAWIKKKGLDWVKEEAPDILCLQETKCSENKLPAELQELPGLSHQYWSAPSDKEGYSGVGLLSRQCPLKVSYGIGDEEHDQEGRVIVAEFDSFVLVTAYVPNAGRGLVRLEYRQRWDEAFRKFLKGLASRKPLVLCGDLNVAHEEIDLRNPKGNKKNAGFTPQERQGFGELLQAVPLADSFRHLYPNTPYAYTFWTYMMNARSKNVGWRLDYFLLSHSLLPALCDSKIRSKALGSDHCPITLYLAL
Description: Isolation and Assay of APE-1 Protein from Nuclear Extracts of Glioma Cells. Human glioblastoma cells (T98G) were maintained in growth medium, i.e., Eagle's Minimum Essential Medium (EMEM) with 10% fetal bovine serum (FBS), […] gentamycin, 1×MEM non-essential amino acids and 1 mM sodium pyruvate. Cells were harvested by Trypsin-EDTA treatment, washed with 1×PBS and nuclear proteins isolated using the CelLytic NuCLEAR Extraction kit (Sigma-Aldrich) as per manufacturer's instructions. Isolated nuclear proteins were estimated colorimetrically (BCA protein assay) and stored at −80° C. (long term) or at −20° C. during regular use. To assay APE-1 activity in T98G cells, nuclear extracts were serially diluted in 10 mM HEPES, 50 mM KCl, 1 mM DTT, 20% (v/v) glycerol and the activities measured via the molecular beacon assay (as described above). […] EC2 nM of nuclear extracts was incubated with 2 to 500 nM hairpin DNA substrate and the V0 measured for each value of [S]. Finally, the apparent KM* was deduced using the software algorithm in Prism (as described previously), and the KM* was used to determine the apparent Ki*. Inhibition of EC2 nM APE-1 activity by the inhibitors was assayed via the molecular beacon assay (described above).
Inhibition of APE-1 Activity in Nuclear Lysates. The ability of 1-5 and 8 to block APE-1 endonuclease activity in a complex mixture of proteins from T98G cell nuclear lysates was tested using the molecular beacon assay. The APE-1 activity in the lysates was standardized to give ˜90% turnover of 25 nM substrate in 10 min.

[4] = target: APE-1 (Homo sapiens (Human), UniProt P27695); test: Fluorescence binding of 4 to APE-1 protein; conditions: 1 μM APE-1, fluorescence increase
APE-1, sequence (P27695 whole entry): as the sequence (P27695 whole entry, stated change not applied) above
Description: Fluorescence and UV Spectrometry Binding Studies. The fluorescence spectra were measured at room temperature on a Cary Eclipse fluorescence spectrometer (Varian, Palo Alto, Calif.). The fluorescence properties of 1 and 4 were measured in 10 mM HEPES, 0.5 mM MgCl2, 100 mM KCl, 100 mM NaCl, 2% glycerol, in absence or presence of wild type (unmodified) hairpin DNA (5′-[…]-3′) or THF-modified hairpin DNA (5′-CGAXTTCGCAGGACCGAATTCG-3′) or APE-1 protein. A solution of 0.5 μM of either DNA sequence was titrated against 1-10 μM ethidium bromide (EtBr) to determine saturation of EtBr by fluorescence (530 nm excitation with 610 nm emission) and the subsequent displacement of EtBr (4 μM) by 1-20 μM 1 or 4 was also assayed. The APE protein-inhibitor binding fluorescence was assayed by titrating 0.1-20 μM of 4 against 1 μM of APE-1 protein.
Interaction of Inhibitors with APE-1 Protein. To establish whether there is a direct interaction between an inhibitor and APE-1, the fluorescence spectra of 4 was determined in the absence and presence of increasing amounts of the protein.

[5] = test system: SK-MEL-5 melanoma cells; test: Combination of APE1 inhibitor 4 with approved anticancer drugs, NCI60 cell line assay; format: cell-based; conditions: preliminary screen
From the text: FIG. 5. An example of the enhanced activity of vemurafenib in combination with APE1 inhibitor 4 in SK-MEL-5 melanoma cells. Matric controls are run in singlet on each matrix and compared to replicate (n=10) controls for vemurafenib and 4.
APE1 Inhibitor 4 Enhances the Toxicity of Anticancer Drugs in the NCl60 Cell Line Assay—In a preliminary screen using 10 randomly selected cell lines, the effect of APE1 inhibitor 4 on the growth of 20 recently approved non-genotoxic anticancer drugs was assayed.

[6] = test system: NCI panel of 60-cell lines; test: NCI 60 cell line growth inhibition; format: cell-based; conditions: NCI 60 cell lines; read-out: average growth inhibition (GI50) in all the lines
[7] = test system: aldehyde reactive sites in genomic DNA from T98G cells; format: cell-based, human
Description: Quantification of Abasic Sites. T98G cells maintained in growth medium, were harvested by Trypsin-EDTA treatment, resuspended in fresh growth medium at a density of 2.5×10^5 cells mL^−1, and 2 mL (5×10^5 cells) of this suspension was seeded into the wells of a sterile 6-well tissue culture plate. Cells were allowed to grow for 24 h, treated with the various compounds for different time points and/or at different concentrations. At the end of each treatment, adherent cells were harvested by trypsin-EDTA treatment and pooled with live and dead cells in culture supernatant. Pooled cells in suspension were pelleted by centrifugation, washed with 1×PBS and genomic DNA was isolated using the DNAzol reagent (Invitrogen). DNA in solution was quantified by UV absorbance (λ260 nm) using a Synergy H1 multiwell plate reader (BioTek, Winooski, Vt.). Abasic sites in purified DNA were then reacted with the biotin-conjugated aldehyde reactive probe (ARP), immobilized onto 96-well ELISA plates, and detected using horseradish peroxidase (HRP)-conjugated streptavidin using a colorimetric substrate as per manufacturer's instructions (Dojindo Molecular Technologies, Rockville, Md.).
The biotin tagged ARS are quantified using an avidin-biotin assay, followed by colorimetric detection with horseradish peroxidase conjugated to avidin.

CCn1c2ccccc2c2cc(/C=N/Nc3cc(C)nc4cc5c(cc34)OCO5)ccc21 [Compound 4]
GI50 [1]: 133 nM | LD50 of MeLex in the presence of LD10 concentration of inhibitor ([2]; 72 h MTS assay): 49 µM | maximum potentiation of MeLex ([2]; short term assay): approximately 5 fold | Ki [3]: 210 nM | Kd [4]: 6150 nM | effect in combination with Vemurafenib [5]: >additive | GI50 [6]: 4400 ± 2600 nM | level of ARS ([7]; 0.25 μM compound, maintained from 6 h until 18 h): approximately 17 ARS/10^5 nucleotides | level of ARS in combination with MeLex ([7]; 80 μM MeLex + 0.25 μM inhibitor, through at least 12 h): 63 sites/10^5 nucleotides

Source: patent US9624235B2, “Compounds and methods for inhibition of AP endonuclease-1/redox factor-1 (HAPE1) activity” (University of Pittsburgh—Of the Commonwealth System of …, priority 2012, dated 2017)
